Results taken from PubChem BioAssay AID1259407 (Chemical Carcinogenesis Research Information System (CCRIS), 2018).
Activity calls are given as the source filed them. No rule for the calls is given here.

Test system: CCRIS mutagenicity, Ames/micronucleus/aberration tests
Experiment: CCRIS mutagenicity studies
[1] = Test System: AMES SALMONELLA TYPHIMURIUM, Strain/Indicator: TA98, Metabolic Activation: HAMSTER, LIVER, S-9, AROCLOR 1254 (10%), Method: PREINCUBATION
[2] = Test System: AMES SALMONELLA TYPHIMURIUM, Strain/Indicator: TA98, Metabolic Activation: NONE, Method: PREINCUBATION
[3] = Test System: AMES SALMONELLA TYPHIMURIUM, Strain/Indicator: TA98, Metabolic Activation: RAT, LIVER, S-9, AROCLOR 1254 (10%), Method: PREINCUBATION
[4] = Test System: AMES SALMONELLA TYPHIMURIUM, Strain/Indicator: TA100, Metabolic Activation: HAMSTER, LIVER, S-9, AROCLOR 1254 (10%), Method: PREINCUBATION
[5] = Test System: AMES SALMONELLA TYPHIMURIUM, Strain/Indicator: TA100, Metabolic Activation: NONE, Method: PREINCUBATION
[6] = Test System: AMES SALMONELLA TYPHIMURIUM, Strain/Indicator: TA102, Metabolic Activation: RAT, LIVER, S-9, AROCLOR 1254, Method: STANDARD PLATE
[7] = Test System: AMES SALMONELLA TYPHIMURIUM, Strain/Indicator: TA1535, Metabolic Activation: NONE, Method: PREINCUBATION
[8] = Test System: MOUSE LYMPHOMA, Strain/Indicator: L5178Y (TK+/TK-), Metabolic Activation: RAT, LIVER, S-9, AROCLOR 1254, Method: SUSPENSION/PLATE
[9] = Test System: AMES SALMONELLA TYPHIMURIUM, Strain/Indicator: TA98, Metabolic Activation: NONE, Method: STANDARD PLATE
[10] = Test System: AMES SALMONELLA TYPHIMURIUM, Strain/Indicator: TA98, Metabolic Activation: RAT, LIVER, S-9, AROCLOR 1254, Method: STANDARD PLATE
[11] = Test System: AMES SALMONELLA TYPHIMURIUM, Strain/Indicator: TA100, Metabolic Activation: NONE, Method: STANDARD PLATE
[12] = Test System: AMES SALMONELLA TYPHIMURIUM, Strain/Indicator: TA100, Metabolic Activation: RAT, LIVER, S-9, AROCLOR 1254, Method: STANDARD PLATE

Question: Which results are given for `NO`?
Answer: mutagenic call (Test System: AMES SALMONELLA TYPHIMURIUM, Strain/Indicator: TA97, Metabolic Activation: HAMSTER, LIVER, S-9, AROCLOR 1254 (10 OR 30%), Method: PREINCUBATION): inactive; negative; mutagenic call (Test System: AMES SALMONELLA TYPHIMURIUM, Strain/Indicator: TA97, Metabolic Activation: NONE, Method: PREINCUBATION): inactive; negative; mutagenic call (Test System: AMES SALMONELLA TYPHIMURIUM, Strain/Indicator: TA97, Metabolic Activation: RAT, LIVER, S-9, AROCLOR 1254 (10 OR 30%), Method: PREINCUBATION): inactive; negative; mutagenic call [1]: inactive; negative; mutagenic call (Test System: AMES SALMONELLA TYPHIMURIUM, Strain/Indicator: TA98, Metabolic Activation: HAMSTER, LIVER, S-9, AROCLOR 1254 (30%), Method: PREINCUBATION): inactive; negative; mutagenic call [2]: inactive; negative; mutagenic call [3]: inactive; negative; mutagenic call (Test System: AMES SALMONELLA TYPHIMURIUM, Strain/Indicator: TA98, Metabolic Activation: RAT, LIVER, S-9, AROCLOR 1254 (30%), Method: PREINCUBATION): inactive; negative; mutagenic call [4]: inactive; negative; mutagenic call (Test System: AMES SALMONELLA TYPHIMURIUM, Strain/Indicator: TA100, Metabolic Activation: HAMSTER, LIVER, S-9, AROCLOR 1254 (30%), Method: PREINCUBATION): inactive; negative; mutagenic call [5]: inactive; negative; mutagenic call (Test System: AMES SALMONELLA TYPHIMURIUM, Strain/Indicator: TA100, Metabolic Activation: RAT, LIVER, S-9, AROCLOR 1254 (10 OR 30%), Method: PREINCUBATION): inactive; negative; mutagenic call [6]: inactive; negative; mutagenic call (Test System: AMES SALMONELLA TYPHIMURIUM, Strain/Indicator: TA1535, Metabolic Activation: HAMSTER, LIVER, S-9, AROCLOR 1254 (10 OR 30%), Method: PREINCUBATION): inactive; negative; mutagenic call [7]: inactive; negative; mutagenic call (Test System: AMES SALMONELLA TYPHIMURIUM, Strain/Indicator: TA1535, Metabolic Activation: RAT, LIVER, S-9, AROCLOR 1254 (10 OR 30%), Method: PREINCUBATION): inactive; negative; mutagenic call (Test System: MOUSE LYMPHOMA, Strain/Indicator: L5178Y (TK+/TK-), Metabolic Activation: NONE, Method: SUSPENSION/PLATE): active; positive; mutagenic call [8]: active; positive

Question: What does the source list for `CC(Oc1ccc(Cl)cc1Cl)C(=O)O` (centres undefined)?
Answer: mutagenic call (Test System: AMES SALMONELLA TYPHIMURIUM, Strain/Indicator: TA97, Metabolic Activation: NONE, Method: STANDARD PLATE): inactive; negative; mutagenic call (Test System: AMES SALMONELLA TYPHIMURIUM, Strain/Indicator: TA97, Metabolic Activation: RAT, LIVER, S-9, AROCLOR 1254, Method: STANDARD PLATE): inactive; negative; mutagenic call [9]: inactive; negative; mutagenic call [10]: inactive; negative; mutagenic call [11]: inactive; negative; mutagenic call [12]: inactive; negative; mutagenic call (Test System: AMES SALMONELLA TYPHIMURIUM, Strain/Indicator: TA102, Metabolic Activation: NONE, Method: STANDARD PLATE): inactive; negative; mutagenic call [6]: inactive; negative

Question: For `N#CSCSC#N`, which mutagenic call (Test System: AMES SALMONELLA TYPHIMURIUM, Strain/Indicator: TA98, Metabolic Activation: HAMSTER, LIVER, S-9, AROCLOR 1254, Method: STANDARD PLATE) is on record?
Answer: The mutagenic call was “inactive; negative”.

Question: What about the mutagenic call [9] of the same compound?
Answer: Its mutagenic call is “inactive; negative”.

Question: And the mutagenic call [10]?
Answer: Its mutagenic call is “inactive; negative”.

Question: What about the mutagenic call (Test System: AMES SALMONELLA TYPHIMURIUM, Strain/Indicator: TA100, Metabolic Activation: HAMSTER, LIVER, S-9, AROCLOR 1254, Method: STANDARD PLATE) of the same compound?
Answer: The mutagenic call was “inactive; negative”.

Question: What about the mutagenic call [11] of the same compound?
Answer: Its mutagenic call is “inactive; negative”.

Question: What about the mutagenic call [12] of the same compound?
Answer: Its mutagenic call is “inactive; negative”.

Question: What about the mutagenic call (Test System: AMES SALMONELLA TYPHIMURIUM, Strain/Indicator: TA1535, Metabolic Activation: HAMSTER, LIVER, S-9, AROCLOR 1254, Method: STANDARD PLATE) of the same compound?
Answer: Its mutagenic call is “inactive; negative”.

Question: And the mutagenic call (Test System: AMES SALMONELLA TYPHIMURIUM, Strain/Indicator: TA1535, Metabolic Activation: NONE, Method: STANDARD PLATE)?
Answer: The mutagenic call was “inactive; negative”.

Question: What about the mutagenic call (Test System: AMES SALMONELLA TYPHIMURIUM, Strain/Indicator: TA1535, Metabolic Activation: RAT, LIVER, S-9, AROCLOR 1254, Method: STANDARD PLATE) of the same compound?
Answer: The mutagenic call was “inactive; negative”.

Question: What about the mutagenic call (Test System: AMES SALMONELLA TYPHIMURIUM, Strain/Indicator: TA1537, Metabolic Activation: HAMSTER, LIVER, S-9, AROCLOR 1254, Method: STANDARD PLATE) of the same compound?
Answer: The mutagenic call was “inactive; negative”.

Question: What about the mutagenic call (Test System: AMES SALMONELLA TYPHIMURIUM, Strain/Indicator: TA1537, Metabolic Activation: NONE, Method: STANDARD PLATE) of the same compound?
Answer: The mutagenic call was “inactive; negative”.

Question: What about the mutagenic call (Test System: AMES SALMONELLA TYPHIMURIUM, Strain/Indicator: TA1537, Metabolic Activation: RAT, LIVER, S-9, AROCLOR 1254, Method: STANDARD PLATE) of the same compound?
Answer: Its mutagenic call is “inactive; negative”.

Question: What about the mutagenic call [8] of the same compound?
Answer: The mutagenic call was “inactive; negative. reevaluation of results: negative”.

Question: What about the mutagenic call (Test System: Mouse lymphoma, Strain/Indicator: L5178Y (tk+/tk-), Metabolic Activation: None, Method: Suspension/plate) of the same compound?
Answer: Its mutagenic call is “inactive; negative”.

Question: For `Nc1ccc2c(c1)C(=O)/C(=N/Nc1ccc(-c3ccc(N/N=C4/C(=O)c5c(N)cc(S(=O)(=O)O)cc5C=C4S(=O)(=O)O)cc3)cc1)C(S(=O)(=O)O)=C2`, which mutagenic call [1] is on record?
Answer: The mutagenic call was “active; positive”.

Question: And the mutagenic call [2]?
Answer: The mutagenic call was “active; positive”.

Question: And the mutagenic call [3]?
Answer: The mutagenic call was “inactive; negative”.

Question: What about the mutagenic call [4] of the same compound?
Answer: The mutagenic call was “inactive; negative”.

Question: What about the mutagenic call [5] of the same compound?
Answer: The mutagenic call was “inactive; negative”.

Question: What about the mutagenic call (Test System: AMES SALMONELLA TYPHIMURIUM, Strain/Indicator: TA100, Metabolic Activation: RAT, LIVER, S-9, AROCLOR 1254 (10%), Method: PREINCUBATION) of the same compound?
Answer: The mutagenic call was “inactive; negative”.

Question: What about the mutagenic call (Test System: AMES SALMONELLA TYPHIMURIUM, Strain/Indicator: TA1535, Metabolic Activation: HAMSTER, LIVER, S-9, AROCLOR 1254 (10%), Method: PREINCUBATION) of the same compound?
Answer: The mutagenic call was “inactive; negative”.

Question: And the mutagenic call [7]?
Answer: The mutagenic call was “inactive; negative”.

Question: And the mutagenic call (Test System: AMES SALMONELLA TYPHIMURIUM, Strain/Indicator: TA1535, Metabolic Activation: RAT, LIVER, S-9, AROCLOR 1254 (10%), Method: PREINCUBATION)?
Answer: Its mutagenic call is “inactive; negative”.

Question: What about the mutagenic call (Test System: AMES SALMONELLA TYPHIMURIUM, Strain/Indicator: TA1537, Metabolic Activation: HAMSTER, LIVER, S-9, AROCLOR 1254 (10%), Method: PREINCUBATION) of the same compound?
Answer: Its mutagenic call is “inactive; negative”.

Question: And the mutagenic call (Test System: AMES SALMONELLA TYPHIMURIUM, Strain/Indicator: TA1537, Metabolic Activation: NONE, Method: PREINCUBATION)?
Answer: The mutagenic call was “active; positive”.

Question: And the mutagenic call (Test System: AMES SALMONELLA TYPHIMURIUM, Strain/Indicator: TA1537, Metabolic Activation: RAT, LIVER, S-9, AROCLOR 1254 (10%), Method: PREINCUBATION)?
Answer: The mutagenic call was “inactive; negative”.

Question: `CCCCc1oc2ccccc2c1C(=O)c1cc(I)c(OCCN(CC)CC)c(I)c1` was tested. Which mutagenic call (End Point: In vivo chromosomal aberrations, Test System: Bone marrow cells, Species: Rat, Strain/Sex: SHR (spontaneously hypertensive)/Female, Route: Oral) did it give?
Answer: The mutagenic call was “inactive; negative”.

Question: What about the mutagenic call (End Point: In vivo chromosomal aberrations, Test System: Bone marrow cells, Species: Rat, Strain/Sex: Wistar-Kyoto (WKY)/Female, Route: Oral) of the same compound?
Answer: Its mutagenic call is “active; positive”.
